# Test results as given in patent publication US11396548B2, “EGFR targeted therapy of neurological disorders and pain” (Sykehuset Sørlandet HF, priority 2012, dated 2022).
# “Also recorded” adds a separate entry of the source.
# Legend:
# Format in all cases: in vivo, human
# [1] = test system: patients with neuropathic pain; assay: Case reports: relief of neuropathic pain by EGFR inhibitors (0-10 NRS / Brief Pain Inventory); settings: for Phantom-limb pain response: Case 5, panitumumab then erlotinib; for NP relief (summary of the cases): conditions where proximal and/or distal parts of peripheral nerves were affected
# Protocol: The term “in vivo” refers to the natural environment (e.g., an animal or a cell) and to processes or reaction that occur within a natural environment. […] Pain interference is assessed using the Brief Pain Inventory (BPI). BPI is used to evaluate pain interference with the following: (a) general activity, (b) mood, (c) walking ability, (d) normal work, (e) relations with other people, (f) sleep, and (g) enjoyment of life. Total score for pain interference is calculated as: (Mean score of non-missing questions)×(7/number of non-missing questions). If four or more questions are missing, the pain interference total score is set to missing.
# In some cases, the patients were asked to complete a BPI short form daily, just before and during the EGFR inhibition, in order to document their neuropathic pain and thus, help us to judge their responses and guide treatment decisions.
# [2] = Case reports: side effects of EGFR inhibitors
# [3] = Case reports: concomitant analgesic / opioid requirement during EGFR inhibition
# [4] = Case reports: performance status, function, quality of life and accompanying symptoms; settings: Case 7, CIPN; after six to eight weeks of treatment
# [5] = Case 2, yrs, complex regional pain syndrome type 1 of the right hand, sequence cetuximab, panitumumab, cetuximab, gefitinib, erlotinib
# [6] = Case 14, panitumumab then erlotinib, four weeks
# [7] = Case 2, CRPS1, after gefitinib discontinuation, 10/10 before treatment
compound,measurement,setting,value
C#Cc1cccc(Nc2ncnc3cc(OCCOC)c(OCCOC)cc23)c1 [erlotinib],Neuropathic pain response,[1]; [5],pain-free upon conversion from panitumumab to erlotinib; also recorded: has not recurred since; also recorded: continues to be completely resolved
same,Phantom-limb pain response,[1],reported phantom-limb pain improvement
same,Least degree of pain,"[1]; Case 9, 10 days on erlotinib 150 mg tablets",0 /10
same,Onset of effect,"[1]; Case 9, oral erlotinib 150 mg",four to five days
same,Pain relief,"[1]; Case 13, 150 mg oral erlotinib after panitumumab, over the following three weeks",up to 70%
same,Pain reduction,"[1]; Case 13, four weeks after starting erlotinib, week with slightly worsening pain, uses omeprazole",60%
same,Average pain,"[1]; Case 14, four weeks after start of EGFR-I (panitumumab), one week after starting erlotinib, around 5 before",4 out of 10
same,Maximum pain,"[1]; Case 14, four weeks after start of EGFR-I, one week after starting erlotinib, 10 before",6 0-10 pain scale
same,NP relief (summary of the cases),[1],led to complete NP relief
same,"Neuropathic pain response (BPI scores, FIG. 7 lower panel)",[1]; previously EGFR-I naive patient (case 9),responded to upfront treatment
same,Side effect,"[2]; Case 9, erlotinib",dry skin grade II which was transient
same,Side effects,[2]; [6],has not experienced any side effects to date
same,Analgesic requirement,[3]; Case 5,opioid requirement diminished
panitumumab,Sensibility,[4],beginning to regain sensibility in their fingers
same,Pain score 48 hours after panitumumab infusion,[1]; [7],3 /10
same,Pain score the next day after panitumumab infusion,[1]; [7],5 /10
same,Neuropathic pain response,[1]; [5],recurrence of severe pain on the very same evening as the panitumumab infusion; also recorded: completely gone again on the third day; also recorded: dramatic increase in pain just hours after infusion; also recorded: dramatic pain relief within hours
same,Phantom-limb pain response,[1],again effectively alleviated within one day after the second infusion
same,Time to complete relief after first infusion,"[1]; Case 6, panitumumab",≤ 24 h
same,Pain reduction,"[1]; Case 7, CIPN, after four to six weeks (2-3 doses) of panitumumab",60-70%
same,Maximum pain intensity,"[1]; Case 7, CIPN, two weeks after first panitumumab, only lasted a few seconds",ten out of ten
same,Duration of painful bursts,"[1]; Case 7, CIPN, two weeks after first panitumumab, several minutes before",five to ten seconds
same,Herpes Zoster related symptoms,"[1]; Case 8, herpetic neuralgia Th5, Day 20, panitumumab infusion, bursts 10/10 on days 16-20",pain had completely resolved.
same,"Herpes Zoster related symptoms: intensity, frequency and duration of painful bursts","[1]; Case 8, Day 34",improve (since day 21).
same,"Time to complete pain relief, into the infusion","[1]; Case 8, panitumumab infusion on day 20",approximately 10 minutes
same,Pain level at recurrence,"[1]; Case 10, 15 days after the initial panitumumab infusion",9 out of 10
same,Pain intensity during the following weeks,"[1]; Case 10, after first panitumumab 6 mg/kg",2-3 NRS
same,Neuropathic pain response,"[1]; Case 11, two days after panitumumab infusion and on continued treatment every 2 weeks",completely gone; also recorded: NP has not recurred
same,Reported pain reduction,"[1]; Case 12, after two panitumumab infusions",75%
same,Duration of analgesic effect,"[1]; Case 12, first panitumumab infusion",lasted only one week
same,Worst pain level after second infusion,"[1]; Case 12, second panitumumab infusion after two weeks, pregabalin reduced from 375 mg to 225 mg",around three
same,Peak NP in occasional episodes,"[1]; Case 12, three months after initial EGFR-I administration",3
same,Average NP,"[1]; Case 12, three months after initial EGFR-I administration, treatment on hold",2
same,Reduction in pain intensity,"[1]; Case 13, yrs, CIPN (oxaliplatin), two days after 6 mg/kg panitumumab i.v.",20-30%
same,Distribution of pain,"[1]; Case 13, two days after panitumumab, pain only located distally in feet",the pain in the legs had completely disappeared
same,"Pain further reduced by, of baseline levels","[1]; Case 13, two weeks after the panitumumab infusion",30-40%
same,Worst pain in the first two weeks after the infusion,"[1]; Case 14, panitumumab, amitryptiline reduced from 40 mg to 20 mg, exacerbations 10 out of 10 before",6-7 out of 10
same,Time to pain recurrence after panitumumab,[1]; case 3,roughly 20 days
same,NP relief (summary of the cases),[1],led to complete NP relief
same,Side effects,"[2]; Case 11, panitumumab every 2 weeks",transient acne; also recorded: has otherwise not experienced any side effects
same,Side effect,"[2]; Case 12, panitumumab",skin rash grade 2-3
same,Side effects,[2]; [6],has not experienced any side effects to date
same,Analgesic requirement,[3]; Case 5,required less breakthrough pain medication
same,Analgesic requirement,"[3]; Case 6, during panitumumab treatment",no longer required analgesics
same,Opiate requirement,"[3]; Case 11, two days after panitumumab, 100 mg depot morphine per 24 hours before",no longer required opiates
